The subject of experiment [1] is normal, T1DM and T2DM mice. The experiment is described as follows: Insulin tolerance test (ITT): activity of lowering plasma glucose (AL). In kind it is in vivo, ICR mice. The conditions noted are these: 30 min after insulin. On the procedure: (§1) T1DM mice were induced by a known method. In brief, an intraperitoneal injection of streptozotocin (STZ; Sigma Chemical Co.; St. Louis, Mo.) at 150 mg/kg was performed in mice that were fasted for 48 h. The induction of T1DM was assessed and confirmed when the mice had plasma glucose levels ≧350 mg/dL, accompanied with polyuria, hyperphagia and decreased body weight. The control mice group received an injection of vehicle and then carried out for 4 weeks. T2DM mice were induced by maintaining on a fat-rich chow diet and fructose-sweetened water for 4 weeks from the age of 4-5 weeks according to previous methods. The induction T2DM mice were assessed by measuring fasting plasma glucose levels and confirmed when plasma glucose level was ≧150 mg/dL after a 4-week induction.
Blood samples were collected from the orbital vascular plexus of mice under anesthesia with sodium pentobarbital (80 mg/kg, intraperitoneal, Sigma Chemical Co., St. Louis, Mo., USA). Blood samples were then centrifuged at 13000 rpm for 5 min, and the plasma was kept on ice prior to the assay. The plasma glucose concentration was measured using commercial kits following manufacturer's instructions (BioSystems S. A., Barcelona, Spain).
To perform OGTT, mice were fasted overnight, divided into 2 groups and then administered a vehicle control and 5 mg/kg borapetoside C. This was followed by administration of a glucose solution at 2 g/kg via tube feeding. Blood samples were withdrawn from the orbital vascular plexus at intervals of 30, 60, 120, and 150 min after glucose administration. For the ITT, mice were fasted for 3 h. Human insulin (Insulin Actrapid) HM; Novo Nordisk, Denmark) was injected intraperitoneally after an intraperitoneal administration of 0.1 mg/kg borapetoside C for 30 min. Blood samples were collected from the orbital vascular plexus at the timed intervals mentioned above.
Therefore, the effects of borapetoside C on insulin tolerance were tested in this study. The non-diabetic, T1DM, and T2DM mice were injected with insulin at various doses (i.e., 0.1 IU/kg, 0.5 IU/kg, and 1.0 IU/kg) in conjunction with either borapetoside C (0.1 mg/kg) or a vehicle control (Table 3), and their plasma glucose levels were examined before and 30 min after insulin injection. The activity of lowering plasma glucose levels (AL) was calculated by the formula: (Gi−Gt)/Gi×100%, where the Gi was the initial glucose concentration and G1 was the plasma glucose concentration after 30-min treatment with insulin. Insulin reduced the plasma glucose levels in both normal and diabetic mice, and the glucose levels were further decreased when insulin was co-administered with borapetoside C to the mice.

Experiment [2] relates to skeletal muscle of normal, T1DM and T2DM mice. The experiment is described as follows: Glycogen content in skeletal muscle after borapetoside C and insulin. In kind it is in vivo, ICR mice. The settings on record: for Glycogen content in skeletal muscle: BoC 0.1 mg/kg i.p. 30 min before insulin, 30 min after insulin injection. As for the experimental part: as §1
Glycogen content of skeletal muscles was measured by a known method. In brief, mice were injected with borapetoside C (5.0 mg/kg, interperitoneal) for 60 min or insulin (0.5 IU/kg, interperitoneal.) for 30 min, and the soleus muscle was isolated from anesthetized mice. About 40 mg of muscle sample was dissolved in 1 N KOH at 75° C. for 30 min. The dissolved homogenate was neutralized by glacial acetic acid and then incubated overnight in acetate buffer (0.3 M sodium acetate, pH 4.8) containing amyloglucosidase (Sigma, St. Louis, Mo.). The mixture was then neutralized with 1 N NaOH to stop the reaction. The glycogen contents in the tissue samples were determined as μg of glucose per mg of tissue (wet weight).
Both non-diabetic and diabetic mice were subjected to various doses of insulin injections at 30 min after intraperitoneal injections with borapetoside C (0.1 mg/kg) or with the vehicle. The glycogen contents in skeletal muscles were then determined at 30 min after insulin injections (Table 4). The ratios of increased glycogen content in the other groups were normalized to those of vehicle-treated group. The ratio was 119.8%, 125.3%, and 108.5% in normal, T1DM, and T2DM mice of insulin-treated group. In borapetoside C combined with insulin-treated group, it was 130.2%, 162.8%, and 122.6% in normal, T1DM, and T2DM mice. […] The increase of insulin sensitivity by borapetoside C is more prominent in diabetic mice than normal mice. Similarly, plasma glucose reduction in mice treated with insulin and borapetoside A are tested and measured.

The mark [3] stands for this setting: Normal mice, insulin 0.1 IU/kg with borapetoside C 0.1 mg/kg or vehicle.
[4] abbreviates: Normal mice, insulin 0.5 IU/kg with borapetoside C 0.1 mg/kg or vehicle.
The mark [5] stands for this setting: Normal mice, insulin 1.0 IU/kg with borapetoside C 0.1 mg/kg or vehicle.
Where [6] appears, read: T1DM mice, insulin 0.1 IU/kg with borapetoside C 0.1 mg/kg or vehicle.
Where [7] appears, read: T1DM mice, insulin 0.5 IU/kg with borapetoside C 0.1 mg/kg or vehicle.
[8] abbreviates: T1DM mice, insulin 1.0 IU/kg with borapetoside C 0.1 mg/kg or vehicle.
The mark [9] stands for this setting: T2DM mice, insulin 0.1 IU/kg with borapetoside C 0.1 mg/kg or vehicle.
Where [10] appears, read: T2DM mice, insulin 0.5 IU/kg with borapetoside C 0.1 mg/kg or vehicle.
The mark [11] stands for this setting: T2DM mice, insulin 1.0 IU/kg with borapetoside C 0.1 mg/kg or vehicle.

Results on two molecules are retold here after US20150265682A1, “THERAPEUTIC METHODS AND COMPOSITIONS FOR TREATING DIABETES” (Orient Europharma Co., Ltd., priority 2014, published 2015).

Take “Insulin: human insulin, Insulin Actrapid HM, a short-acting insulin provided by Novo Nordisk [reference compound]”: the “AL (activity of lowering plasma glucose levels)” value in experiment [1] (setting [3]) came to 14.6 ± 0.8%; in experiment [1] (setting [4]), 37.5 ± 1.1%; in experiment [1] (setting [5]) it was 56.8 ± 1.9%; in experiment [1] (setting [6]), 8.7 ± 1.6%; in experiment [1] (setting [7]), 11.5 ± 0.6%; in experiment [1] (setting [8]), 24.0 ± 1.3%. The “AL (activity of lowering plasma glucose levels)” value was 19.5 ± 1.5% in experiment [1] (setting [9]), 27.5 ± 2.6% in experiment [1] (setting [10]) and 32.0 ± 1.1% in experiment [1] (setting [11]). In addition, the results for the “Glycogen content in skeletal muscle” value in experiment [2] (Normal mice), in experiment [2] (T1DM mice) and in experiment [2] (T2DM mice) were 38.1 ± 0.3 μg of glucose per mg of tissue (wet weight), 38.1 ± 2.3 μg of glucose per mg of tissue (wet weight) and 35.5 ± 1.1 μg of glucose per mg of tissue (wet weight), respectively. The “ratio of glycogen content normalized to vehicle-treated group” value in experiment [2] (T1DM mice) came to 125.3%; in experiment [2] (T2DM mice), 108.5%; in experiment [2] (normal mice), 119.8%.

As to `COC(=O)C1=CCC[C@H]2[C@]3(C)C[C@@H](c4ccoc4)OC(=O)[C@@H]3C[C@@H](O[C@@H]3O[C@H](CO)[C@@H](O)[C@H](O)[C@H]3O)[C@@]12C` [Borapetoside C, borapetoside C], the “AL (activity of lowering plasma glucose levels)” value is listed as 17.2 ± 1.2% in experiment [1] (setting [3]); 45.7 ± 3.7% in experiment [1] (setting [4]); 64.7 ± 1.8 % in experiment [1] (setting [5]); 10.5 ± 1.4% in experiment [1] (setting [6]); 18.9 ± 2.1% in experiment [1] (setting [7]); 32.2 ± 2.1 % in experiment [1] (setting [8]). Moreover, the entries for the “AL (activity of lowering plasma glucose levels)” value in experiment [1] (setting [9]), in experiment [1] (setting [10]) and in experiment [1] (setting [11]) were 24.0 ± 1.1%, 31.6 ± 1.6% and 42.5 ± 0.8 %, respectively. Besides, the results for the “Glycogen content in skeletal muscle” value in experiment [2] (Normal mice), in experiment [2] (T1DM mice) and in experiment [2] (T2DM mice) were 32.7 ± 0.7 μg of glucose per mg of tissue (wet weight), 30.0 ± 1.2 μg of glucose per mg of tissue (wet weight) and 30.7 ± 1.3 μg of glucose per mg of tissue (wet weight), respectively.
